Laboratory results from patent US9737493B2, “Compositions and methods for modulating DNMT1 inhibitor activity” (University of Louisville Research Foundation, Inc., priority 2012, dated 2017).

Key:
Type in all cases: cell-based, human
A549 cells [1] = assay: Flow cytometric detection of γ-H2AX; settings: A549, 2 μM, 24 h
Description: (§1) FIG. 11: XB05 Induces DNA Damage in Malignant Cells. (A) Alkaline comet assays for detection of DNA damage for cells treated as indicated for 72 h. TBHP was a positive control for oxidative DNA damage. Decreased DNA fluorescence in nucleoid comet heads (arrows) and increased smearing of DNA into comet tails (asterisks) is indicated. Scale bar, 400 μm. Data shown are representative of at least two individual experiments for each cell line. (B) Western blot analysis for γ-H2AX and GAPDH (loading control) in whole cell extracts from cells treated with vehicle, UV irradiation (800 μJ, positive control for DSBs), or XB05 (1 μM for U937, 2 μM for A549) after 24 h. Images shown are representative of three individual experiments in each cell line. (C) Flow cytometric detection of γ-H2AX in cells treated as described in part B. Bar graph represents mean+/−SEM for 3 individual experiments in each cell line. Statistical comparison indicated significant differences between vehicle and XB05-treated groups in both cell lines (*p≦0.05).
(§2) Flow Cytometric Assays. Analyses were performed using a FACScalibur flow cytometer (BD Biosciences, Mountain View, Calif.) and FlowJo software (Tree Star, Inc., Ashland, Oreg.). […] Cells were then washed twice with PBS, re-suspended at a density of 1×10^6 cells/mL in PBS and analyzed by flow cytometry.

U937 cells [2] = assay: Flow cytometric detection of γ-H2AX; settings: U937, 1 μM, 24 h
Description: as §1, §2

A549 cells [3] = assay: Western blot for Nrf2 in nuclear extracts; settings: A549, 2 μM, 8 or 24 h
Description: (§3) FIG. 8: XB05 Modulates Cellular Stress Responses. (A) A luminescence-based assay for reduced glutathione (GSH) content in cells treated 24 h with XB05 (1 μM for U937 and Hs27, or 2 μM for A549), in the absence or presence of 5 mM GSH. Some cells were treated with buthionine sulfoximine (BSO, 200 μM) plus diethyl maleate (DEM, 1 mM) for 3 h as a positive control for GSH depletion. Bar graph indicates mean+/−SEM from three independent experiments. […] (C) Western blot for Nrf2 in nuclear extracts from cells treated as in part A for either 8 h or 24 h. Membranes were stripped and reprobed for Ku-70 as a loading control. (D) Western blot for phospho-eIF2α (Ser51), total eIF2-α, BiP/Grp78, and GAPDH (loading control) in whole cell extracts from cell lines treated as indicated for 24 h with concentrations of XB05 described in part A. Thapsigargin (TG, 2 μM) was used as a positive control for induction of endoplasmic reticulum (ER) stress.
(§4) Cell Extracts. […] Nuclear cells extracts were isolated using the NE-PER Nuclear and Cytoplasmic Extraction Kit (Thermo Scientific, Rockford, Ill.), per the manufacturer's protocol. For total cell extract, cells were lysed in RIPA buffer (Thermo Scientific) containing protease inhibitor cocktail III and phosphatase inhibitor cocktail (Calbiochem, Billerica, Mass.) for 5 min at 4° C., and then cleared by centrifugation at 16,000 g for 10 min at 4° C. All protein concentrations were determined using the DC Protein Assay™ kit (BioRad, Hercules, Calif.).
(§5) Western Blotting. […] Proteins were detected using the following primary antibody concentrations: PARP-1 (1:1000), cleaved caspase-3 (1:1000), γ-H2AX (Ser139) ([…]), phospho-eIF2α (Ser51) (1:1000), eIF2α (1:1000), Bip (1:1000), Nrf2 (1:1000), Ku-70 (1:1000) and GAPDH (1:1000). […] Where indicated, band intensities were quantified using the UN-SCAN-IT Gel digitizing software (Silk Scientific, Orem Utah) and normalized to vehicle control.

Hs27 cells = assay: Western blot for Nrf2 in nuclear extracts; settings: Hs27, 1 μM, 8 or 24 h
Description: as §3, §4, §5

U937 cells [4] = assay: Western blot for Nrf2 in nuclear extracts; settings: U937, 1 μM, 8 or 24 h
Description: as §3, §4, §5

CCCCCC(O)C#CC(F)(F)Br (centres unmarked) [XB05]
increase in γ-H2AX staining compared to vehicle-treated controls (A549 cells [1]): 2.9 fold
increase in γ-H2AX staining compared to vehicle-treated controls (U937 cells [2]): 4.5 fold
nuclear Nrf2 (A549 cells [3]): slight increase in nuclear levels of Nrf2
nuclear Nrf2 (Hs27 cells): no change
nuclear Nrf2 (U937 cells [4]): decrease in nuclear Nrf2
